The values below come from article PMC10057977, “Use of In Vivo Imaging and Physiologically-Based Kinetic Modelling to Predict Hepatic Transporter Mediated Drug–Drug Interactions in Rats” (Pharmaceutics, 2023).

Read-outs that look alike come from different tables or passages of the source.

The target of one data set is rMrp2 (Rattus norvegicus, UniProt Q63120). The format is in vivo. As to conditions: ketoconazole 3 mg/kg iv. Further details: from tissue; host or cells: liver of living male Wistar rats (Charles River Laboratories). An excerpt:
The tracer-kinetic model was developed to enable estimation of rate constants of hepatobiliary efflux from DCE-MRI profiles in individual animals. In this approach, the liver was assumed to consist of two compartments, the extracellular space (e) and the hepatocytes (h). Since water exchanges rapidly between those spaces, the change in relaxation rate was a weighted average (Equation (4)). (4) ΔR1(t)=r1,e·ve·ce(t)+r1,h·vh·ch(t)
The proportionality constant, r1,τ [L⋅mmol^−1⋅s^−1] , is the relaxivity of the contrast agent for the compartment τ (extracellular space, e or hepatocytes, h) at the respective field strength, while vτ [mL/mL tissue] is the volume fraction of the compartment τ . Previously measured ex vivo r1,tau values for gadoxetate were used in this work, as per. The underlying assumptions of the PBPK and tracer-kinetic models, relating to physiological volumes and perfusion, are consistent, despite different parameterizations according to the purpose of each model. For example, Vliv,extr in the PBPK model is defined as an absolute volume (units = L; sum of liver plasma and interstitial volumes), while in the tracer-kinetic model, ve is a volume fraction (dimensionless), defined as Vliv,extr/Vliver , where Vliver is the total liver volume. While some analogy can be drawn between CLactive […], and CLbiliary and kbh, the interpretations are distinct. For example, the operating concentrations of the PBPK parameters CLactive […], and CLbiliary are the unbound concentrations of gadoxetate in plasma and hepatocytes, while the tracer-kinetic model is parameterized with respect to the total concentration of gadoxetate.
Since ce(t) is the input to the hepatocytes, and no backflux from hepatocytes to extracellular space is assumed, Equation (5) can be derived. (5) vh·ch(t)=e^−t/Th∗khe·ce(t) where Th is the mean transit time of gadoxetate in the hepatocytes [min] , and * is convolution. The extracellular space is assumed to be in equilibrium with the blood pool and therefore the concentration ce(t) is proportional to the concentration cp(t) in the plasma of the feeding artery, i.e., ce(t) = (1 − E)·cp(t), where E is the extraction fraction of gadoxetate in the liver. Combining this assumption with Equations (4) and (5), and using (1 − E)·khe = E·Fp, with Fp being the apparent plasma flow into the liver [mL/min/mL tissue volume] , gives Equation (6), the operational equation for gadoxetate DCE-MRI in the liver. (6) ΔR1(t)=(1−E)·ve·r1,p·cp(t)+E·Fp·r1,h ·e^−t/Th ∗cp(t)
The rate constants were derived as K^trans = E·Fp, khe = E·Fp/(1 − E), and kbh = vh/Th, with a literature value for vh. The plasma concentrations cp(t) were not reliably measured in small animals due to the small diameter of the main vessels compared to the resolution of the measurement. […] Therefore, the source term cp(t) was derived from a two-compartment pharmacokinetic model for gadoxetate (see Supplementary Material, Section S5), and a step function as input in the blood compartment. The parameters kbh and khe were fitted to the liver data using a model implementation in Python. For each rat considered in these studies, the rate constants K^trans, khe, and kbh were calculated, in both control and inhibitory phases. The rate constants of the control and inhibitory phases were compared via calculation of simple (unstandardized) effect sizes (i.e., simple effect size = μcontrol − μtreatment, where μ is the mean average of all subjects) at the 95% confidence level. Statistical significance was assessed through a two-sided paired t-test, with p < 0.05 considered significant.

The subject of the next data set is NTCP. The arrangement: method as in earlier work. As to conditions: in vitro; ref 30,43-55 and in-house data from Merck & Co.; cited from earlier work.
A short description of data set [1]: Drug plasma concentrations in humans at therapeutic dosing. The format is in vivo. Particulars: ketoconazole plasma exposure, human.
The subject of the next data set is MRP2. Particulars: in vitro; bracket not explained in the table; ref 30,43-55 and in-house data from Merck & Co.; cited from earlier work.
For the next data set, the system named is OATP1B1. The arrangement: method as in earlier work. As to conditions: in vitro, bracket not explained in the table, ref 30,43-55 and in-house data from Merck & Co., cited from earlier work.
For data set [2] the following is noted: cited from earlier work.
In the next data set the test system is OATP1B3. Further details: method as in earlier work. Particulars: in vitro; ref 30,43-55 and in-house data from Merck & Co.; cited from earlier work.
Details of data set [3]: method as in supplement [28]. As to conditions: rat; 30 min after 3 mg/kg ketoconazole IV; ref supplement [28]; cited from earlier work.

Chain of rMrp2 (Q63120 whole entry): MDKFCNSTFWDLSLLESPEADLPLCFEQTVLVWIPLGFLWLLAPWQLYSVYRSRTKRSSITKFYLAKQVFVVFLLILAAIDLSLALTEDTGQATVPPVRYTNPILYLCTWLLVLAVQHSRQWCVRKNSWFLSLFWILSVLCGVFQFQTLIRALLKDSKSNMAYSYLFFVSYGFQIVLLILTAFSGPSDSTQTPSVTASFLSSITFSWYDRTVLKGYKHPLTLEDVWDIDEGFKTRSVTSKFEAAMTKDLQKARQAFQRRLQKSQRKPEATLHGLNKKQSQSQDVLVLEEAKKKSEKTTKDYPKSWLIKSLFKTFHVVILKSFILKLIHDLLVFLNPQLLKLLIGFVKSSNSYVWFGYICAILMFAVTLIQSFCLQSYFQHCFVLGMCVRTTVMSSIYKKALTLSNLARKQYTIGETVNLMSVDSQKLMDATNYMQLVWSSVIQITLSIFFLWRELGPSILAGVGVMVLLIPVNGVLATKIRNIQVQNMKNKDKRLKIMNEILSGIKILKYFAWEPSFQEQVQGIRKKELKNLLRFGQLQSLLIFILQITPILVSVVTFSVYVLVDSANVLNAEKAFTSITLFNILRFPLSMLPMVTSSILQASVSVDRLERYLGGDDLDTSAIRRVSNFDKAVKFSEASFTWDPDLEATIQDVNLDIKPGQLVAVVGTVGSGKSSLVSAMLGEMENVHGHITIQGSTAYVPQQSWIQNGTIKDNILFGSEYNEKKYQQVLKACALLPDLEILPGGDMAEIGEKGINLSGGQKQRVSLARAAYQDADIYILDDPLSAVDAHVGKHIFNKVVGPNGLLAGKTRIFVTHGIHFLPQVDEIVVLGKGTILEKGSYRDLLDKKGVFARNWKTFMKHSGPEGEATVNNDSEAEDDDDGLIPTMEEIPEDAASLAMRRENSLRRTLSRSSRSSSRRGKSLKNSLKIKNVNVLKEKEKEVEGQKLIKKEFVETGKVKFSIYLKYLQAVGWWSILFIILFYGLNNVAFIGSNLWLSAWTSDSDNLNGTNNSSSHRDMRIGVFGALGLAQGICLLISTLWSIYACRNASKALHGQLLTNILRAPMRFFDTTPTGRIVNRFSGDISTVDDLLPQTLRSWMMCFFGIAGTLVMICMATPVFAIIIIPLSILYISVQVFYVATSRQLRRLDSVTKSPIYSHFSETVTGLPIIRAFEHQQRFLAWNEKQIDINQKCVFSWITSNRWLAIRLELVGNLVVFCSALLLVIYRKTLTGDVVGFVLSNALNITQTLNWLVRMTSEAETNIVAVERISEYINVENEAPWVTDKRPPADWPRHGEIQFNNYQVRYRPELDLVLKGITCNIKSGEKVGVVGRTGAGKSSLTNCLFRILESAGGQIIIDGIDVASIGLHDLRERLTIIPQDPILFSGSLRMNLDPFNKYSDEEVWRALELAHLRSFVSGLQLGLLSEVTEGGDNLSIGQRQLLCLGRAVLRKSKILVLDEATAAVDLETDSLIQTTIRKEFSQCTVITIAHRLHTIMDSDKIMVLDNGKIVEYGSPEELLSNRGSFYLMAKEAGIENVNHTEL

Take `CC(=O)N1CCN(c2ccc(OCC3COC(Cn4ccnc4)(c4ccc(Cl)cc4Cl)O3)cc2)CC1` (stereo not shown) [Ketoconazole]: the “Simple Effect Size (95% CI) kbh” value on rMrp2 (gadoxetate biliary efflux, control − treatment, positive = decrease, site D) was 0.02 (−0.02, 0.06) mL/min/mL liver. Further, the “change in gadoxetate kbh vs control” value at rMrp2 (rat, p = 0.39) is “no significant changes”. Besides, the concentration for half-maximal inhibition (IC50) with NTCP is 202 µM; with MRP2, above 20 µM; in the data set on OATP1B1 it was 15.4 µM; with OATP1B1 (listed as ketoconazole), above 2 µM; in the data set on OATP1B3, 3.9 µM. Besides, the “unbound Cmax” value in data set [1] is ~ 0.07 µM. Further, in the data set with OATP1B1, the Ki is 50.7 µM. Further, the peak concentration (Cmax) in data set [2] (human plasma, daily dose 200 mg (ketoconazole), read-out: Cmax (µM) [Daily Dose]) is 6.6 µM; in data set [2] (human, ref supplement [29], read-out: clinical Cmax), 7 µM. Also, the “clinical Ctrough” value in data set [2] (human, ref supplement [29]) is reported as 0.2 µM. Further, the plasma concentration in data set [3] is 4 µM.
